Consider 1 compound from paper PMC12713470, “Design and Synthesis of Novel Chalcone Derivatives Targeting Bladder and Liver Cancer: Cytotoxicity Evaluation and Preliminary Mechanistic Studies” (ACS Omega, 2025).

What all share (format): cell-based, human
Experiment [1] deals with HepG2 cells. As to the kind of experiment: Clonogenic survival, HepG2. Conditions: 4.62 and 9.25 μM, 48 h treatment, 10 days colony formation. On the procedure: (§1) The cells were cultured in DMEM (Sigma-Aldrich, St. Louis, USA) and supplemented with 10% fetal bovine serum (Cultilab Ltda., Campinas, Brazil) and antibiotics (amphotericin). They were incubated at 37 °C in a humidified atmosphere with 5% CO2. Control cell groups, which were not exposed to the compound, were included in the experiments and were conducted in triplicate. The chalcone was dissolved in dimethyl sulfoxide (DMSO) for the assays.
The cells were trypsinized and plated into 24-well plates at a density of 1.0 × 10^5 cells/mL. Afterward, they were treated with the chalcone at concentrations of 2.15, 4.62, 9.25, and 18.50 μM for 48 h. Following treatment, the cells were washed with Hanks’ solution and trypsinized again, and approximately 1000 cells were reseeded into 12-well plates. These cells were incubated for 10 days in a CO2 incubator to allow colony formation. After the incubation period, the culture medium was removed, and the cells were washed with Hanks’ solution. Fixation was performed using 4% formaldehyde for 20 min, followed by […] in 100% methanol for 20 min. The cells were then stained with a 0.5% crystal violet solution prepared in 25% methanol. […] Absorbance was measured at 570 nm using a spectrophotometer, and the results were expressed as the percentage of colonies formed relative to the untreated control group.

For experiment [2], the system named is T24 cells. Description: Cell cycle progression (propidium iodide flow cytometry), T24. To be noted: after treatment, 48 h. On the procedure:
Cells were seeded in 12-well plates at a density of 1.0 × 10^5 cells per well and incubated for 24 h to allow adhesion. Following this initial incubation, the cells were treated with the chalcone at concentrations of 0.92, 2.15, 4.62, and 9.25 μM for an additional 48 h. After the treatment, the cells were washed, trypsinized, and collected along with the culture supernatant into Falcon tubes. The samples were then centrifuged at 1000 rpm for 10 min. After centrifugation, the supernatant was discarded, and the cell pellets were resuspended in 200 μL of propidium iodide staining solution before being transferred to cytometry tubes. These tubes were incubated on ice, in the dark, for 30 min. Flow cytometric analysis was performed on 20,000 events using a BD FACScalibur flow cytometer (BD Biosciences, Franklin Lakes, NJ, USA), and the data were analyzed using FlowJo software.

For experiment [3], the system named is HepG2 cells. As to the kind of experiment: Morphology assay, HepG2. To be noted: 2.15-18.50 μM, 48 h. As to the method:
For the morphology assay, 2.0 × 10^5 cells were cultured in 12-well plates for 24 h to allow adherence. After this period, the cells were treated with the chalcone at concentrations of 2.15, 4.62, 9.25, and 18.50 μM for 48 h. After treatment, the cells were examined and photographed under an inverted microscope at 200× magnification.

Experiment [4] has as its system HepG2 cells. As to the kind of experiment: Cell migration (wound), HepG2. To be noted: 4.62 and 9.25 μM, 48 h. On the procedure:
as §1
(§2) Cells were seeded in 24-well plates at a density of 1.0 × 10^5 cells per well and incubated for 24 h to allow attachment. After this incubation, a sterile 200 μL pipet tip was used to scrape the cell monolayer, creating a wound. The initial wound area was photographed using an inverted microscope equipped with a camera. Following this, the cells were washed with Hanks’ solution and treated with the glycosylated chalcone at concentrations of 2.15, 4.62, 9.25, and 18.50 μM for 48 h. At the end of the treatment period, the cells were photographed again, and migration into the wound area was assessed. The percentage of cell migration was quantified using ImageJ and GraphPad Prism software.

In experiment [5] the test system is T24 cells. As to the kind of experiment: Cell migration (wound), T24. Conditions: highest concentration tested, 48 h. As to the method: as §1, §2

`CCCc1cc(/C=C/C(=O)c2ccc(C)cc2)c(OC)c(OC)c1` [compound 3, (E)-3-(2,3-Dimethoxy-5-propylphenyl)-1-(p-tolyl)-prop-2-en-1-one]: the “colony formation, HepG2” value with HepG2 cells [1] was “reduction in colony formation”. The “cell cycle distribution, T24” value in the experiment with T24 cells [2] is “no difference was observed after treatment”. Further, in the experiment with HepG2 cells [3], the “morphology, HepG2” value was “reduction in cell density was observed”. For the same compound, in the experiment on HepG2 cells [4], the “cell migration, HepG2” value is listed as “reduction of cell migration”. The “cell migration, T24” value with T24 cells [5] is given as “significant decrease was observed”.
